Test results: patent US20050226821A1, “Cosmetic formulations containing l-arginine oligomers” (priority 2002, published 2005)

Columns and labels:
C57 black six mice = assay: Topical enhancement of hair growth after depilation, daily application for 14 days; type: in vivo; design: key to Hair Shaft Length, Comparison anova (95) vs. control / Follicle Area, Comparison anova (95) vs. control / Number of follicles per cross-section, Comparison anova (95) vs. control: **: significant by fisher PLSD and Scheffe F-test (P = 0.0001)
Protocol: A preparation of (L-arg)-(L-arg)-(L-arg)-(L-arg)-(L-arg)-(L-arg)-(L-arg)-(L-arg)-(L-arg) or [LR9] was obtained from Sigma Genosys at >70% purity. To achieve a therapeutic benefit on hair growth, a 10× stock of LR9 was prepared as 70 mg in 80 μl PBS. To 0.2 ml of Cetaphil moisturizer base was added the following: • LR9: 20 μl of 10× LR9 stock • Control: 20 μl PBS
After addition of LR9/PBS to moisturizer base, samples were mixed to homogeneity and stored at 4C overnight. C57 black six mice at 8 weeks of age were anesthetized with 3% isoflurane by inhalation, were shaved, and underwent depilation at mid-scapular dorsal region of 2 cm×2 cm with a rosin mixture (Surgiwax, Ardell, Commerce, Calif.) to induce the synchronized adolescent first hair cycle. Moisturizer was applied daily at 0.2 cc per day for either LR9 treatment or control for a fourteen day period at n=4 per group. After 14 days application the treated skin segment was harvested en bloc and subdivided into three equal portions: a cranial portion, a left lateral portion and a right lateral portion. The cranial portion and the left lateral portion were fixed in 10% neutral buffered formalin for 12-16 hours, then rinsed in 70% ethanol and embedded in paraffin. The right lateral portion was snap frozen in OCT medium at the time of harvest and stored at −35C until use.
Paraffin-embedded specimens were sectioned at 4-6 microns, deparaffinized, and stained with a combination of Verhoeff elastica stain and the Masson trichrome stain for morphological assessment of follicle area and number. Frozen samples underwent random hair pulls to determine hair shaft length. All procedures and analyses were performed by blinded observers. […] Images were analyzed using Image Pro Plus software (Media Cybernetics, Silver Spring, Md.) to determine total cross-sectional follicle area, follicle number, or hair length. Mean and standard error were assessed using Statview (Abacus Concepts, Berkeley, Calif.), with comparisons made using ANOVA repeated measures and significance determined at 95% with post-hoc testing using Fisher PLSD or Scheffe F-test.

human subjects = assay: Topical lip color and contour enhancement, image analysis of lip area after lip gloss application; type: in vivo; details: mean across 1, 5, 10, 15 and 30 minutes after application, Revlon Lip Gloss base
Protocol: A preparation of (L-arg)-(L-arg)-(L-arg)-(L-arg)-(L-arg)-(L-arg)-(L-arg)-(L-arg)-(L-arg) or [LR9] was obtained from Sigma Genosys at >70% purity. […], a 1× stock of LR9 for lip enhancement was prepared as 35 mg in 50 μl pbs, which was added to 2.0 ml of Revlon Lip Gloss base for the following groups: • LR9 • Control (base only)
After addition of LR9 to lip gloss base, samples were mixed to homogeneity and stored at room temperature overnight. After baseline image acquisition using a Minolta Dimage 7 digital camera set to 105 macro (1:1) with standard lighting and scaling conditions, human subjects underwent topical application of LR9 or control gloss. All participants were blinded with respect to treatment or control application. Additional digital micrographs were acquired at time 0, 1, 5, 10, 15, and 30 minutes after lip gloss application. The gloss was then removed and participants asked to record duration of any lip contour or color changes. Additionally, any complications (irritation, etc) were also tracked for each. Each subject was treated at different timepoints with both groups (treatment or control). Image analysis of total photographic area was performed for each group, with care taken to normalize each to scales included at the time of photograph acquisition. Baseline images (pre-application) were verified to have statistically similar values between pre-LR9 gloss and pre-base gloss applications for each participant. Mean and standard error across timepoints 1, 5, 10, 15, and 30 minutes were determined for each participant after LR9-gloss or base gloss application. Values for each as well as photos acquired at matching timepoints are presented by participant below for 3 participants. [drawing]

(L-arg)-(L-arg)-(L-arg)-(L-arg)-(L-arg)-(L-arg)-(L-arg)-(L-arg)-(L-arg) [LR9]
Number of follicles per cross-section, Mean (C57 black six mice; 14 days topical): 406.417 | Hair Shaft Length, Mean (C57 black six mice; 14 days topical, 0.2 cc per day in Cetaphil moisturizer base, n=4, 1 pixel = 2.774 microns): 1612.424 pixels | Follicle Area (by total x-sectional area), Mean (C57 black six mice; 14 days topical, 1 square pixel = 7.69 square microns): 53546.00 square pixels | Follicle Area, Comparison anova (95) vs. control (C57 black six mice; 14 days, LR9 vs. control): ** | Hair Shaft Length, Comparison anova (95) vs. control (C57 black six mice; 14 days, LR9 vs. control): ** | Number of follicles per cross-section, Comparison anova (95) vs. control (C57 black six mice; 14 days, LR9 vs. control): ** | Hair growth as measured by hair shaft length, total follicle area, and number of hair follicles (C57 black six mice; without any additional transdermal delivery platform): statistically significantly enhance hair growth | Mean Area (human subjects; first of 3 participants): 7.745 sq. in. | Mean Area (human subjects; second of 3 participants): 7.411 sq. in. | Mean Area (human subjects; third of 3 participants): 7.911 sq. in.
